± gives the standard deviation of the reports.
| glass transition temperature | SMILES |
| --- | --- |
| 130.00 °C | *Oc1ccc(C(=O)c2ccc(OC(=O)c3ccc(C(C)(C)c4ccc(C(*)=O)cc4)cc3)cc2)cc1 (repeat unit) |
| 34.00 °C | *CC(*)(C)C(=O)OCCCCOc1ccc(OC(=O)c2ccc(OCCCCCC)cc2)cc1 (repeat unit) |
| 25.00 °C | *CC(*)(C)C(=O)OCc1ccc2c(c1)c1ccccc1n2CCCCCCCCCCCC (repeat unit) |
| 220.00 °C | *Oc1ccc(Oc2ccc(C(=O)Nc3ccc(Oc4ccc(-c5ccc(Oc6ccc(NC(=O)c7ccc(*)cc7)cc6)cc5)cc4)cc3)cc2)cc1C (repeat unit) |
| 329.00 °C | *Cc1ccc2oc(=O)c(C(=O)Nc3ccc(C(c4ccc(NC(=O)c5cc6cc(*)ccc6oc5=O)cc4)(C(F)(F)F)C(F)(F)F)cc3)cc2c1 (repeat unit) |
| 155.00 °C | *Oc1ccc(C2(c3ccc(OC(*)=O)cc3)CCCCCC2)cc1 (repeat unit) |
| 150.30 °C | *c1ccc2c(c1)C(=O)N(c1cc(N3C(=O)c4ccc(C(*)(C(F)(F)F)C(F)(F)F)cc4C3=O)ccc1OCCCCCCOc1ccc(-c3ccc(OCC)cc3)cc1)C2=O (repeat unit) |
| 214.00 °C | *Oc1cccc(Oc2ccc(C(=O)c3ccc(NC(=O)c4cccc(C(=O)Nc5ccc(C(=O)c6ccc(*)cc6)cc5)c4)cc3)cc2)c1 (repeat unit) |
| 98.92 ± 0.1 °C | *CC(*)c1ccc(C(=O)c2ccc(C)cc2)cc1 (repeat unit) [Poly(4-p-toluoylstyrene)] |
| 238.00 °C | *c1ccc(Oc2ccc(Oc3ccc(N4C(=O)C5CCC(C6CCC7C(=O)N(*)C(=O)C7C6)CC5C4=O)cc3)cc2)cc1 (repeat unit) |
| 16.20 °C | *c1ccc(-c2cc(CCCCCCCC)c(-c3ccc(-c4sc(*)cc4CCCCCCCC)cc3)s2)cn1 (repeat unit) |
| 262.00 °C | *Oc1ccc(S(=O)(=O)c2cccc3c(S(=O)(=O)c4ccc(Oc5c(C)cc(-c6cc(C)c(*)c(C)c6)cc5C)cc4)cccc23)cc1 (repeat unit) |
| 84.00 °C | *CCC(C)Oc1ccc(-c2ccc(C(=O)OCC(C)COC(=O)c3ccc(-c4ccc(O*)cc4)cc3)cc2)cc1 (repeat unit) |
| 302.50 ± 11 °C | *c1ccc(Oc2ccc(C(c3ccc(Oc4ccc(-n5c(=O)c6cc7c(=O)n(*)c(=O)c7cc6c5=O)cc4)cc3)(C(F)(F)F)C(F)(F)F)cc2)cc1 (repeat unit) |
| 218.00 °C | *Oc1ccc(NC(=O)c2cccc(C(=O)Nc3ccc(OC4COC5C(*)COC45)cc3)c2)cc1 (repeat unit) |
| 140.00 °C | *CC(*)C(=O)Oc1ccc(/N=N/c2ccc(OC)cc2)cc1 (repeat unit) |
| 114.00 °C | */C=C/c1sc(-c2ccc(-c3sc(/C=C/C4=CC(=C(C#N)C#N)C=C(*)O4)c(CCCCCC)c3CCCCCC)s2)c(CCCCCC)c1CCCCCC (repeat unit) |
| -26.00 °C | *CC(C)(COC(=O)NCCCCCCNC(=O)O*)C(=O)O (repeat unit) |
| 180.00 °C | *Oc1ccc(NC(=O)c2cccc(C(=O)Nc3ccc(Oc4ccc(C(C)(C)c5cccc(C(C)(C)c6ccc(*)cc6)c5)cc4)cc3)c2)cc1 (repeat unit) |
| 182.00 °C | *C(=O)Oc1c(C)cc(C(C)(C)c2cc(C)c(OC(=O)c3ccc4c(c3)C(=O)N(c3ccc(-c5ccc(N6C(=O)c7ccc(*)cc7C6=O)cc5C)c(C)c3)C4=O)c(C)c2)cc1C (repeat unit) |
| 78.00 °C | *Nc1ccc(Cc2ccc(NC(=O)NCCCCCCNC(*)=O)cc2)cc1 (repeat unit) |
| 130.00 °C | *Oc1ccc(C(C)(C)c2ccc(OC(=O)OC3C(C)(C)C(OC(*)=O)C3(C)C)cc2)cc1 (repeat unit) |
| 252.20 °C | *c1ccc(OC(=O)Oc2ccc(C3(*)OC(=O)c4ccccc43)cc2)cc1 (repeat unit) |
| 266.00 °C | *Sc1ccc(Sc2ccc(Sc3cccc4c3C(=O)N(N3C(=O)c5cccc(*)c5C3=O)C4=O)cc2)cc1 (repeat unit) |
| 181.00 °C | *Oc1ccc(C(c2ccc(OC(=O)c3ccc(Oc4ccc(C(*)=O)cc4)cc3)cc2)(C(F)(F)F)C(F)(F)F)cc1 (repeat unit) |
| 146.00 °C | *CCC1CC(*)C2C3CC(C12)C(C)(C(=O)OC)C3 (repeat unit) |

| glass transition temperature | SMILES |
| --- | --- |
| 190.00 °C | *Oc1ccc(C(C)(C)c2ccc(OC(=O)c3ccc(C(*)=O)cc3)c(Cl)c2)cc1Cl (repeat unit) |
| 220.00 °C | *c1ccc(Oc2ccc(C(C)(C)c3ccc(Oc4ccc(-c5nc(-c6ccccn6)nnc5*)cc4)cc3)cc2)cc1 (repeat unit) |
| 310.00 °C | *c1ccc(-c2ccc(-c3ccc(-c4ccc(-c5cc(-c6ccccc6)c6cc(Oc7ccc8nc(*)cc(-c9ccccc9)c8c7)ccc6n5)cc4)cc3)cc2)cc1 (repeat unit) |
| 247.00 °C | *c1ccc(C(C)(C)c2ccc(N3C(=O)c4ccc(Oc5ccc6ccc(Oc7ccc8c(c7)C(=O)N(*)C8=O)cc6c5)cc4C3=O)cc2)cc1 (repeat unit) |
| 251.00 °C | *Oc1ccc(Oc2ccc(NC(=O)c3cc(NC(=O)c4ccc(OC(C)=O)cc4)cc(C(=O)Nc4ccc(*)cc4)c3)cc2)cc1 (repeat unit) |
| 225.00 °C | *Oc1ccc(NC(=O)c2ccc(*)cc2)cc1 (repeat unit) |
| 93.00 °C | */C(=C/c1cc(OCCCCCCCC)c(/C=C(\c2ccccc2)c2ccc3c(c2)Sc2ccc(*)cc2S3)cc1OCCCCCCCC)c1ccccc1 (repeat unit) |
| 23.00 °C | *CC(*)(C)C(=O)OCCCCC(F)(F)C(F)(F)C(F)(F)C(F)(F)C(F)(F)C(F)(F)F (repeat unit) |
| 340.00 °C | *c1ccc(Oc2ccc(C(C)(C)c3ccccc3)cc2)c(-n2c(=O)c3cc4c(=O)n(*)c(=O)c4cc3c2=O)c1 (repeat unit) |
| 181.00 °C | *Oc1ccc(C(C)(C)c2ccc(Oc3ccc(C(=O)c4ccc(C(c5ccc(C(=O)c6ccc(*)cc6)cc5)(C(F)(F)F)C(F)(F)F)cc4)cc3)cc2)cc1 (repeat unit) |
| 232.00 °C | *Oc1ccc(S(=O)(=O)c2ccc(Oc3c(C)cc(Cc4cc(C)c(*)c(C)c4)cc3C)cc2)cc1 (repeat unit) |
| 12.50 °C | *CC(*)(C)C(=O)OCC(F)(F)C(F)(F)C(F)(F)C(F)(F)C(F)(F)C(F)F (repeat unit) |
| 280.00 °C | *c1cccc(Oc2cccc(Oc3cccc(N4C(=O)c5c(c(-c6ccccc6)c(-c6ccc(-c7c(-c8ccccc8)c8c(c(-c9ccccc9)c7-c7ccccc7)C(=O)N(*)C8=O)cc6)c(-c6ccccc6)c5-c5ccccc5)C4=O)c3)c2)c1 (repeat unit) |
| 108.00 °C | *Oc1ccc(OC(=O)c2ccc(C(*)=O)cc2Oc2ccc(Br)cc2)cc1 (repeat unit) |
| -24.62 ± 3.6 °C | *CCCCCCCCCCCCCCC(=O)O* (repeat unit) [poly(pentadecalactone)] |
| 100.00 °C | *Oc1cccc(Oc2ccc(C(=O)O)c(C(=O)Nc3ccc(Oc4ccc(-c5ccc(Oc6ccc(NC(=O)c7cc(*)ccc7C(=O)O)cc6)cc5)cc4)cc3)c2)c1 (repeat unit) |
| 149.00 °C | *Oc1ccc(C(C)(C)c2cccc(C(C)(C)c3ccc(Oc4ccc(C(=O)Nc5ccc(Cc6ccc(NC(=O)c7ccc(*)cc7)cc6)cc5)cc4)cc3)c2)cc1 (repeat unit) |
| 179.00 °C | *Oc1ccc(/C=N/N=C/c2ccc(Oc3ccc(C(=O)c4ccc(*)cc4)cc3)cc2)cc1 (repeat unit) |
| 158.00 °C | *Oc1ccc(C2(c3ccc(OC(=O)CCCCCCC(*)=O)cc3)c3ccccc3-c3ccccc32)cc1 (repeat unit) |
| -5.00 °C | *c1ccc(-c2ccc(-c3ccc([Si](CCCC)(CCCC)[Si](*)(CCCC)CCCC)s3)s2)s1 (repeat unit) |
| 267.00 °C | *Nc1cccc(NC(=O)CCCCC(=O)Nc2ccc(C(=O)NC(*)=S)cc2)c1 (repeat unit) |
| 365.00 °C | *c1cccc(-c2nc3cc4nc(-c5ccccc5)c(*)nc4cc3nc2-c2ccccc2)c1 (repeat unit) |
| 85.00 °C | *CCCCCCNC(=O)CCc1ccc(CCC(=O)N*)cc1 (repeat unit) |
| 31.90 °C | *CCN(CCOC(=O)Nc1ccc(Cc2ccc(NC(=O)O*)cc2)cc1)c1ccccc1 (repeat unit) |
| 185.00 °C | *c1ccc2c(c1)C(=O)N(c1ccc(Oc3ccc(N4C(=O)c5ccc(C(F)(F)C(F)(F)C(F)(F)C(F)(F)C(F)(F)C(*)(F)F)cc5C4=O)cc3)cc1)C2=O (repeat unit) |

| SMILES | glass transition temperature |
| --- | --- |
| *c1ccc2c(c1)C(=O)N(c1cccc(Oc3cc(Oc4cccc(N5C(=O)c6ccc(C(*)(C(F)(F)F)C(F)(F)F)cc6C5=O)c4)ccc3P(=O)(c3ccccc3)c3ccccc3)c1)C2=O (repeat unit) | 230.00 °C |
| *CC(*)OC(=O)c1ccc(C)cc1 (repeat unit) | 73.50 °C |
| *c1cccc(P(=O)(c2cccc(-n3c(=O)c4c(-c5ccc(C(F)(F)F)cc5)c5c(=O)n(*)c(=O)c5c(-c5ccc(C(F)(F)F)cc5)c4c3=O)c2)c2cc(C(F)(F)F)cc(C(F)(F)F)c2)c1 (repeat unit) | 310.00 °C |
| *CCc1ccc(*)c(Br)c1 (repeat unit) | 80.00 °C |
| *=NP(=NP(=NC(=*)Oc1ccccc1)(Oc1ccccc1)Oc1ccccc1)(Oc1ccccc1)Oc1ccccc1 (repeat unit) | 18.00 °C |
| *CC(=C)COCC(=C)COC(=O)O* (repeat unit) | 70.50 °C |
| *O[Si](*)(C)CCCC(=O)OCCO (repeat unit) | -58.00 °C |
| *CC(*)(C)C(=O)OCc1cccs1 (repeat unit) | 66.00 °C |
| *CC/C=C(/*)CCCCCCC (repeat unit) | -83.00 °C |
| *Oc1ccc(P(C)(=O)c2ccc(Oc3ccc(C(C)(C)c4ccc(*)cc4)cc3)cc2)cc1 (repeat unit) | 192.00 °C |
| *CCN(*)C(=O)CCCC (repeat unit) | 13.00 °C |
| *CC(CCl)O* (repeat unit) [Poly(epichlorohydrin)] | -22.22 ± 1.5 °C |
| *CCCCOC(=O)CCCC(=O)O* (repeat unit) | -36.50 °C |

Source: the PolyMetriX glass transition set
